Patent US6958318B2, “Recombinant bacterial cells for delivery of PNP to tumor cells” (The UAB Research Foundation, priority 1993, dated 2005)
“And” between values parts separate entries of the source, which are not always exact repeats. Identical values can stand only once. Marks after values point to notes of the source that are not given here.

Assays:
[1] = target: T1, human PNP (Homo sapiens, UniProt P00491); test: Cleavage of purine analog nucleosides by human PNP (HPLC); format: biochemical
T1 sequence (P00491 1-289): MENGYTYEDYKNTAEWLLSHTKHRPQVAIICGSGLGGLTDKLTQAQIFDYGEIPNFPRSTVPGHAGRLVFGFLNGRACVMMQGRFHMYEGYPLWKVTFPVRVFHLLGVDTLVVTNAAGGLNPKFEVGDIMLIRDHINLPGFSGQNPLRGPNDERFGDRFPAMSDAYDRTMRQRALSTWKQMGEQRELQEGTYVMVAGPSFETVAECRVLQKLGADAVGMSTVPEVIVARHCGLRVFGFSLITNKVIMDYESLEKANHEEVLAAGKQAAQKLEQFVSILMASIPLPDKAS

[2] = target: T2, E. coli PNP (Escherichia coli, UniProt P0ABP8); format: cell-based; conditions: 160 μM, 5 day period, E. coli PNP transfected cells
T2 sequence (P0ABP8 2-239): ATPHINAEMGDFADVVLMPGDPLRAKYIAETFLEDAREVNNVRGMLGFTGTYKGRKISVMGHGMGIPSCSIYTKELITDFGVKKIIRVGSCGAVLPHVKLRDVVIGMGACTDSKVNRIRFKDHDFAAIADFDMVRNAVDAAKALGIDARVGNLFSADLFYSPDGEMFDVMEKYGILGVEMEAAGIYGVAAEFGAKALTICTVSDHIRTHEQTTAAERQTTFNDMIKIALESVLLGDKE

[3] = system: 16/C-PNP tumors; test: E. coli PNP-transduced 16/C tumors in B6C3F1 mice; format: in vivo
Method: (§1) Transduced 16/C cells were implanted in mice by subcutaneous injection of approximately 10^6 cells harvested from the cultures of stably transduced 16/C cells described above. The mice were examined visibly for tumor growth and those with developing tumors were maintained. To prepare mice for use in the in vivo experiments, the tumors were removed from mice with significant tumor growth and cut into 30-60 mg pieces. One 30-60 mg piece of the tumor was subcutaneously implanted into the subaxillary region of each female B6C3F1 mouse. The tumors were allowed to develop and mice with tumors of 100 mm^3 were used.
Six mice per group with established PNP-transduced 16/C tumors were treated with aqueous control solution, MeP-dR or F-ara AMP, as above. […] (Table III, 16/C-PNP treatment.)

[4] = literature; cited from earlier work
[5] = Stability under tissue culture conditions (HPLC of supernatants); conditions: HPLC analysis of supernatants
[6] = system: PNP transduced tumors; format: in vivo; conditions: 67 mg/kg ip, qd×3 d
[7] = system: wild type murine breast carcinoma cells (16/C cell line); test: Wild-type 16/C tumors in nude mice; format: in vivo; conditions: FIG. 6
Method: For studies conducted with nu/nu mice, cells obtained from stable cultures of transduced cell lines were injected subcutaneously into the right or left flank of the mice. Mice with visible tumor growth were used for further studies. For the administration of purine prodrug, mice were administered MeP-dR or F-araAMP by IP injection.
Four to five nude (nu/nu) mice per group were inoculated with wild type murine breast carcinoma cells (16/C cell line), or PNP transduced 16/C cells. Mice with established tumors (approximately 100 mm^3) were treated with MeP-dR (100 mg/kg/d IP×3 d) or F-araAMP (100 mg/kg/IP 3 id×3 d).

[8] = system: T-84 colon carcinoma cells; test: Killing of T-84 cells transfected with SV-PNP (DOTAP/DOPE); format: cell-based, human; conditions: 30 μg/ml, day 6
Source text: To eliminate possible toxicity associated with the non-hydrolyzable cationic lipid component of the LipofectinJ, an alternative liposome transfection vehicle was used in the killing experiments. A liposome vehicle consisting of a 1:1 (weight/weight) mixture of the cationic lipid DOTAP (1,2-dioleoyloxy-3-(trimethylammonium)-propane) and the neutral lipid DOPE (dioleoyl-phosphatidylethanolamine) (Avanti Polar Lipids) display transfection properties similar to LipofectinJ, but with less toxicity (data not shown). DOTAP/DOPE liposomes were prepared by mixing 0.5 mg of DOTAP and 0.5 mg of DOPE and evaporating the chloroform solvent. Following the addition of 500 μl of cyclohexane, the mixture was placed on dry ice and lyophilized. One ml of sterile water was added to the powdered lipids and the solution was vortexed every 5 minutes for 30 minutes. T-84 or Mel-1 cells were seeded at 30% confluency in 24-well plates and allowed to grow overnight. […]
In cells that received the PNP or control plasmids, the media was changed two days after transfection and MeP-dR (6-methylpurine-deoxyriboside) added to the appropriate wells to a final concentration of 30 μg/ml. […] Two days later (day 6), the cells were washed once with PBS, resuspended, and counted in a 20% solution of trypan blue reagent (Trypan Blue Stain 0.4%, Gibco-BRL, Gaithersburg, Md.) using a hemacytometer. […]

[9] = target: T2, E. coli PNP; format: biochemical
[10] = system: wild-type 16/C tumors; test: Wild-type 16/C tumors in B6C3F1 mice; format: in vivo
Method: as §1
Six mice (B6C3F1) per group with established wild type 16/C tumors were treated with an aqueous control solution, MeP-dR (100 mg/kg IP qd×3d) or 2-fluoro-arabinofuranosyladenine monophosphate (F-araAMP) (100 mg/kg IP, […]). The wild type tumors grew rapidly in the presence or absence of either of the prodrugs. […] (Table III, Wild-type 16/C treatment).

[11] = IP for three days, MeP-dR 100, F-araAMP 500 mg/kg/day

Cc1ncnc2c1ncn2[C@H]1C[C@H](O)[C@@H](CO)O1 [MeP-dR, 9-(β-D-2-deoxyerythropentofuranosyl)-6-methylpurine]
Percent of substrate cleaved by Human PNP, 100 μM [1]: 0(86) Percent and 0%
Percent of substrate cleaved by Human PNP, 1 mM [1]: 0(47) Percent and 0%
Substrate quality for mammalian (human) PNP [1]: poor substrates
MeP-dR converted to MeP in culture medium [2]: More than 75%
Complete Regressions/Total [3, 11]: three of six and 3/6
Day delay (Treated-control) [3, 11]: 5.4 days
Nonspecific Deaths/Total [3, 11]: 2/6****
Delay in time for three tumor doublings, in words ([3]; p<0.01): statistically significant delay
Toxicity of prodrug relative to its purine analog [4]: much less toxic than their respective purine analogs
Stability under tissue culture conditions [5]: stable
Effect on very large pre-existing PNP transduced tumors (approximately 1 gram) [6]: impressive regression
Effect on growth of wild-type 16/C tumors [7]: only a small effect on tumor growth
Killing of T-84 cells transfected with SV-PNP [8]: susceptible to killing
Percent of substrate cleaved by E. coli PNP, 100 μM [9]: 91(86)45(21) Percent and 93(87)29(24) Percent
Percent of substrate cleaved by E. coli PNP, 1 mM [9]: 91(86)45(21) Percent and 93(87)29(24) Percent
Substrate quality for bacterial (E. coli) PNP [9]: good substrates
Complete Regressions/Total [10, 11]: 0/6
Day delay (Treated-control) [10, 11]: 2.4 days
Nonspecific Deaths/Total [10, 11]: 0/6
Delay in tumor growth, in words ([10]; wild type 16/C): no statistically significant delay in tumor growth
